Counter-ions that a name gives are not always drawn. Numbered stars: 1 amine (or outer) side, 2 acyl side, 3 side chain; on linkers, the order of the positions; unused ones are H or OH. Bridge positions count the residues as written; N and C are the ends. Square brackets hold non-standard residues; d marks the D form. Peptide text beside a SMILES is read from it. * marks the point of attachment. X1 = O=C(C1[C@H]2CCCC[C@H]2C[C@H]1C(=O)[*:2])[C@@H]1CCCN1[*:1]; Oic = O=C(O)[C@@H]1C[C@@H]2CCCC[C@@H]2N1; Pen = CC(C)(S)[C@H](N)C(=O)O; X2 = N[C@@H](CN*)C(=O)O; Sar = CNCC(=O)O
Assays:
human MASP2 = target: T1, human MASP2 (Homo sapiens, UniProt O00187); assay: Biochemical human MASP2 assay (FRET substrate); conditions: average IC50
T1 construct: Ig-kappa secretion signal (N, cleaved yes); made in house; host or cells: HEK293 (ATCC No. CRL-1573)
From the text: 2.1 Recombinant Expression and Protein Production of Recombinant Human MASP1 and MASP2 Active Proteases.
The MASP1 or MASP2 expression vectors were transfected into the HEK293 (ATCC No. CRL-1573) cell line using Lipofectamine LTX® Reagent (Thermo-Fischer), as described by the manufacturer. […] The MASP1 and MASP2 proteins were purified from the conditioned media by affinity chromatography on Ni-NTA Superflow resin (Qiagen) as described by the manufacturer.
2.3 Biochemical Human MASP2 Assay
Recombinant human MASP2 enzyme produced in the HEK 293 cells was diluted in the reaction buffer (50 mM HEPES pH 8,0; 100 mM NaCl; 0.01% CHAPS; 0.5 mM Gluthathione) to the concentration of 20 nM and 25 μl was transferred into each single well of 384-well white microtiter plate (Greiner Bio One 781075). 1 μl of the inhibitor compound solution (dissolved in DMSO, at the corresponding concentration) or pure DMSO as a control was added to the same wells. […] The microtiter plate was incubated for 60-120 min at the temperature of 32 C. The increase of fluorescence intensity was measured in appropriate fluorescence plate reader (e.g. TECAN Ultra) using excitation wavelength of 340 nm and emission wavelength of 490 nm. IC50 values were calculated from percentage of inhibition of human MASP2 activity as a function of test compound concentration.

rat MASP1 = target: T2, rat MASP1 (Rattus norvegicus, UniProt Q8CHN8); assay: Biochemical rat MASP1 assay (FRET substrate); conditions: average IC50; recombinant rat MASP1, FRET substrate
T2 construct: Ig-kappa secretion signal (N, cleaved yes); made in house; host or cells: HEK293 (ATCC No. CRL-1573)
T2 sequence (Q8CHN8 302-453 limits assumed): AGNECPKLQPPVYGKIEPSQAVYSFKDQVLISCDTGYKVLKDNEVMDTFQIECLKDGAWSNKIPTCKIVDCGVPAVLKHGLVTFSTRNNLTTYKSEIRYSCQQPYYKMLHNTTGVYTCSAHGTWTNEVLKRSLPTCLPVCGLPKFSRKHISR
T2 sequence (Q8CHN8 454-704 limits assumed): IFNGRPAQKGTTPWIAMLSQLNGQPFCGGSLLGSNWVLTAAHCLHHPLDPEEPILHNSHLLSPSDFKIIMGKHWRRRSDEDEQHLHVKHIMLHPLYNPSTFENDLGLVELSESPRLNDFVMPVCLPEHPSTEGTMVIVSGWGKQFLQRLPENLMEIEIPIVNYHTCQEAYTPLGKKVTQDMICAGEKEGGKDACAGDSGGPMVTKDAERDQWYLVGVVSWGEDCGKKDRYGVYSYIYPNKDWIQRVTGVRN
From the text: 4. Biochemical Rat MASP-1 and MASP-2 Assay
4.1 Recombinant Expression and Protein Production of Recombinant Human and Rat MASP1 and MASP2 Active Proteases.
A truncated cDNA sequence of rat MASP1 encoding the fragment corresponding to the amino acids 302-704 with an C-terminal His Tag and N-terminal Ig-kappa secretion signal (SEQ ID No: 4) was subcloned into the mammalian expression vector pcDNA3.1 (Invitrogen).
The MASP1 or MASP2 expression vectors were transfected into the HEK293 (ATCC No. CRL-1573) cell line using Lipofectamine LTX® Reagent (Thermo-Fischer), as described by the manufacturer. The mature form of the recombinant rat MASP1 and MASP2 proteases were secreted into the culture medium. The MASP1 and MASP2 proteins were purified from the conditioned media by affinity chromatography on Ni-NTA Superflow resin (Qiagen) as described by the manufacturer.
4.2 Biochemical Rat MASP1 Assay.
Recombinant rat MASP1 enzyme produced in the HEK 293 cells was diluted in the reaction buffer (50 mM HEPES pH 8,0; 100 mM NaCl; 0.01% CHAPS; 0.5 mM Gluthathione) to the concentration of 4 nM and 25 μl was transferred into each single well of 384-well white microtiter plate (Greiner Bio One 781075). 1 μl of the inhibitor compound solution (dissolved in DMSO, at the corresponding concentration) or pure DMSO as a control was added to the same wells. The enzymatic reaction was initiated by addition of 25 μl of 40 μM solution of the FRET substrate Dabcyl-[…]-Glu(Edans)-NH2 (SEQ ID NO: 8); (Dabcyl—4-((4-(dimethylamino)phenyl)azo)benzoic acid; Edans—5-[(2-Aminoethyl) amino]naphthalene-1-sulfonyl; custom synthesis by Jerini Peptide Technologies, Berlin) in the reaction buffer. The microtiter plate was incubated for 60-120 min at the temperature of 32 C. The increase of fluorescence intensity was measured in appropriate fluorescence plate reader (e.g. TECAN Ultra) using excitation wavelength of 340 nm and emission wavelength of 490 nm. IC50 values were calculated from percentage of inhibition of rat […] activity as a function of test compound concentration.

human MASP1 = target: T3, human MASP1 (Homo sapiens, UniProt P48740); assay: Biochemical human MASP1 assay (FRET substrate); conditions: average IC50
T3 construct: Ig-kappa secretion signal (N, cleaved yes); made in house; host or cells: HEK293 (ATCC No. CRL-1573)
T3 sequence (P48740 297-448): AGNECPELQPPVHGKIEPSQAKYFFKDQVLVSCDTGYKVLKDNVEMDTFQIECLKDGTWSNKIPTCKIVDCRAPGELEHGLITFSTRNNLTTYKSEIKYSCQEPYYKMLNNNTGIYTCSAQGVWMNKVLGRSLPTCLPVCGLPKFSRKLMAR
T3 sequence (P48740 449-699): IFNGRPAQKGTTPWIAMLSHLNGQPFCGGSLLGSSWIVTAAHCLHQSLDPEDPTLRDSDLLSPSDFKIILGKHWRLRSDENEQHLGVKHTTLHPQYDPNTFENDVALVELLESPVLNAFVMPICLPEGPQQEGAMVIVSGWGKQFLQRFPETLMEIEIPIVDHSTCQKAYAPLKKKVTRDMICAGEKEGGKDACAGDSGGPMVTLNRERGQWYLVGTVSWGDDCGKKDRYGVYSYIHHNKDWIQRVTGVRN

T1 sequence (O00187 297-444): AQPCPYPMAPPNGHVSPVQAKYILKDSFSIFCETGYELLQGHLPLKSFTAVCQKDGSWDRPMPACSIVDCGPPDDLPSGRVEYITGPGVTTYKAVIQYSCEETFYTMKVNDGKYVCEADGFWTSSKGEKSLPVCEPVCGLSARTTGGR
T1 sequence (O00187 445-686): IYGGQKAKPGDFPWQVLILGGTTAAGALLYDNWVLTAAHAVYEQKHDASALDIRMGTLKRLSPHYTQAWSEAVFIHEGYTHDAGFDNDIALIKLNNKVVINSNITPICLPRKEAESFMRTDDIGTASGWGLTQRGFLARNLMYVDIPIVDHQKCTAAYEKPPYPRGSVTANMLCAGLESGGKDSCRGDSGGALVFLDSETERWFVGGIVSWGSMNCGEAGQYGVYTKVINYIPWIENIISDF

## CC[C@H](C)[C@H](NC(=O)CNC)C(=O)N[C@H]1CSSC(C)(C)[C@@H](C(=O)N[C@H](C(=O)N2CCC[C@H]2C(N)=O)[C@@H](C)CC)NC(=O)[C@H]([C@@H](C)CC)NC(=O)[C@@H]2C[C@@H]3CCCC[C@@H]3C2C(=O)[C@@H]2CCCN2C(=O)[C@H](CC(C)C)NC(=O)[C@H](CO)NC(=O)[C@H](CCCNC(=N)N)NC(=O)[C@H](CO)NC1=O (stereo partly drawn) [Example 67, ((N-Me)G)-IC+SRSLP-(Oic)-I-(Pen)+IP-NH2 (HCl Salt)] (H-[Sar]ICSRSL[X1]I[Pen]IP-NH2; disulfide 3-10)
Human MASP2
  IC50: 43 nM
Rat MASP1
  IC50: 72 nM
Human MASP1
  IC50: 2.2 nM

## CC[C@H](C)[C@H](NC(=O)CNC)C(=O)N[C@H]1CSSC(C)(C)[C@@H](C(=O)N[C@H](C(=O)N2CCC[C@H]2C(=O)NC[C@H](N)C(=O)O)[C@@H](C)CC)NC(=O)[C@H]([C@@H](C)CC)NC(=O)[C@@H]2C[C@@H]3CCCC[C@@H]3N2C(=O)[C@@H]2CCCN2C(=O)[C@H](CC(C)C)NC(=O)[C@H](CO)NC(=O)[C@H](CCCNC(=N)N)NC(=O)[C@H](CO)NC1=O [Example 467] (H-[Sar]ICSRSLP[Oic]I[Pen]IP-X2; disulfide 3-11)
Human MASP2
  IC50: 55 nM
Rat MASP1
  IC50: 170 nM
Human MASP1
  IC50: 6.6 nM

## CC[C@H](C)[C@H](NC(=O)[C@H](C)NC)C(=O)N[C@H]1CSSC(C)(C)[C@@H](C(=O)N[C@H](C(=O)N2CCC[C@H]2C(N)=O)[C@@H](C)CC)NC(=O)[C@H]([C@@H](C)CC)NC(=O)[C@@H]2C[C@@]3(CN2C(=O)[C@@H]2CCCN2C(=O)[C@@H](CC(C)(C)C)NC(=O)[C@H](CO)NC(=O)[C@H](CCCNC(=N)N)NC(=O)[C@H](CO)NC1=O)CC3(F)F (single isomer, unassigned; enantiomer 1) [Example 443]
Human MASP2
  IC50: 74 nM
Rat MASP1
  IC50: 29 nM
Human MASP1
  IC50: 0.78 nM

## [2H][C@@H]1[C@H]([2H])CN2C(=O)[C@H](CC(C)C)NC(=O)[C@H](CO)NC(=O)[C@H](CCCNC(=N)N)NC(=O)[C@H](CO)NC(=O)[C@@H](NC(=O)[C@@H](NC(=O)[C@H](C)N)[C@@H](C)CC)CSSC(C)(C)[C@@H](C(=O)N[C@H](C(=O)N3CCC[C@H]3C(=O)N[C@@H](CC(=O)O)C(=O)O)[C@@H](C)CC)NC(=O)[C@H]([C@@H](C)CC)NC(=O)[C@@H]3C[C@@H]4CCCC[C@@H]4N3C(=O)[C@H]12 [Example 142, N-[(1R,2S,6S,9S,12S,15S,18R,23R,26S,28aS,35aS)-18-[(L-alanyl-L-isoleucyl)amino]-26-[(2S)-butan-2-yl]-12-(3-carbamimidamidopropyl)-9,15-bis(hydroxymethyl)-22,22-dimethyl-6-(2-methylpropyl)-5,8,11,14,17,25,28,35-octaoxo(1,2-^2H2)dotriacontahydro-1H,5H,22H-pyrrolo[2′,1′:13,14][1,2,5,8,11,14,17,20,23,26]dithiaoctaazacyclononacosino[11,10-a]indole-23-carbonyl]-L-isoleucyl-L-prolyl-L-aspartic Acid]
Human MASP2
  IC50: 126 nM
Rat MASP1
  IC50: 10.9 nM
Human MASP1
  IC50: 2.13 nM

## CC[C@H](C)[C@H](NC(=O)CNC)C(=O)N[C@H]1CSSC(C)(C)[C@@H](C(=O)N[C@H](C(=O)N2CCC[C@H]2C(=O)N[C@@H](CC(=O)O)C(=O)N[C@@H](CC(=O)O)C(=O)O)[C@@H](C)CC)NC(=O)[C@H]([C@@H](C)CC)NC(=O)[C@@H]2C[C@@H]3CCCC[C@@H]3N2C(=O)[C@@H]2CCCN2C(=O)[C@H](CC(C)C)NC(=O)[C@H](CO)NC(=O)[C@H](CCCNC(=N)N)NC(=O)[C@H](CO)NC1=O [Example 466, ((N-Me)G)-IC+SRSLP-(Oic)-I-(Pen)+IPDD-OH] (H-[Sar]ICSRSLP[Oic]I[Pen]IPDD-OH; disulfide 3-11)
Human MASP2
  IC50: 40 nM
Rat MASP1
  IC50: 17.6 nM
Human MASP1
  IC50: 0.72 nM

## CC[C@H](C)[C@H](NC(=O)[C@H](C)N)C(=O)N[C@H]1CSSC[C@@H](C(=O)N[C@H](C(=O)N2CCC[C@H]2C(=O)N[C@@H](CC(=O)O)C(N)=O)[C@@H](C)CC)N(C)C(=O)[C@H]([C@@H](C)CC)NC(=O)[C@@H]2C[C@@H]3CCCC[C@@H]3N2C(=O)[C@@H]2CCCN2C(=O)[C@H](CC(C)C)NC(=O)[C@H](CO)NC(=O)[C@H](CCCNC(=N)N)NC(=O)[C@H](CO)NC1=O [Example 185, AIC+SRSLP-(Oic)-I-((N-Me)C)+IPD-NH2]
Human MASP2
  IC50: 245 nM
Rat MASP1
  IC50: 57 nM
Human MASP1
  IC50: 4.8 nM

## CC[C@H](C)[C@H](NC(=O)CNC)C(=O)N[C@H]1CSSC(C)(C)[C@@H](C(=O)N[C@H](C(=O)N2CCC[C@H]2C(N)=O)[C@@H](C)CC)NC(=O)[C@H]([C@@H](C)CC)NC(=O)[C@@H]2C[C@@H]3CCCC[C@@H]3N2C(=O)[C@@H]2CCCN2C(=O)[C@H](CC(C)C)NC(=O)[C@H](CO)NC(=O)[C@H](CCCNC(=N)N)NC(=O)[C@H](CO)NC1=O [Example 109, ((N-Me)G)-IC+SRSLP-(Oic)-I-(Pen)+IP-NH2] (H-[Sar]ICSRSLP[Oic]I[Pen]IP-NH2; disulfide 3-11)
Human MASP2
  IC50: 69.6 nM
Rat MASP1
  IC50: 76 nM
Human MASP1
  IC50: 2.9 nM

— patent publication US11667675B2, “MASP inhibitory compounds and uses thereof” (Bayer Aktiengesellschaft, priority 2019, dated 2023)
